Assays:
Format in all cases: cell-based
[1] = biological target: EP2 (Homo sapiens (Human), UniProt P43116); assay: hEP2 cAMP assay (SF295 glioblastoma cells, HTRF cAMP); conditions: antagonistic activity
From the text: (§1) Human tumor cell lines expressing endogenously either EP4 or EP2 are used and cAMP accumulation in cells upon PGE2 stimulation is monitored. SF295 glioblastoma cells express high endogenous EP2 and no EP4, whereas BT549 breast cancer cells, express high endogenous EP4 levels and very low EP2 levels.
(§2) As a detection method for cAMP the HTRF (homogeneous time resolved fluorescence) Cisbio kit (HTRF cAMP dynamic 2 kit 20'000 tests Cisbio Cat. #62AM4PEC) was used, which is based on a competitive immunoassay using a Cryptate-labeled anti-cAMP antibody and d2-labeled cAMP. Native cAMP produced by cells or unlabeled cAMP (for the standard curve) compete with exogenously added d2-labeled cAMP (acceptor) for binding to monoclonal anti-cAMP-Eu3+Cryptate (donor). A FRET signal (Fluorescence Resonance Energy Transfer) is obtained only if the labeled anti-cAMP antibody binds the d2 labelled cAMP, thus the specific signal (i.e. energy transfer) is inversely proportional to the concentration of cAMP in the standard or sample.
(§3) Cells are counted washed and resuspended in assay buffer (AB; HBSS, 20 mM HEPES, 0.2% BSA; 2 mM IBMX).
Plate is pre-incubated 45 minutes at RT. […] Plate is incubated 30 minutes at RT.

[2] = biological target: PTGER2 (EP2) (Homo sapiens (Human), UniProt P43116); assay: hEP2 b-arrestin assay (PathHunter HEK 293 PTGER2 b-arrestin cells); conditions: antagonistic activity, beta-arrestin assay; read-out: hEP2 b-arr IC50
Description: Plate is pre-incubated 15 minutes at 37° C. Then five microliters of PGE2 (final conc. 5 μM) are transferred into the assay plate. Plate is incubated 120 minutes at 37° C.
(each concentration is measured in duplicate)

[3] = biological target: EP4 (Homo sapiens (Human), UniProt P35408); assay: hEP4 cAMP assay (BT549 breast cancer cells, HTRF cAMP); conditions: antagonistic activity, PGE2 6 nM
From the text: as §1, §2, §3
Plate is pre-incubated 45 minutes at RT. Subsequently, 2.5 microliters of PGE2 (final conc. 6 nM) are transferred into the assay plate. Plate is incubated 30 minutes at RT.

Chain of EP4 (P35408 whole entry): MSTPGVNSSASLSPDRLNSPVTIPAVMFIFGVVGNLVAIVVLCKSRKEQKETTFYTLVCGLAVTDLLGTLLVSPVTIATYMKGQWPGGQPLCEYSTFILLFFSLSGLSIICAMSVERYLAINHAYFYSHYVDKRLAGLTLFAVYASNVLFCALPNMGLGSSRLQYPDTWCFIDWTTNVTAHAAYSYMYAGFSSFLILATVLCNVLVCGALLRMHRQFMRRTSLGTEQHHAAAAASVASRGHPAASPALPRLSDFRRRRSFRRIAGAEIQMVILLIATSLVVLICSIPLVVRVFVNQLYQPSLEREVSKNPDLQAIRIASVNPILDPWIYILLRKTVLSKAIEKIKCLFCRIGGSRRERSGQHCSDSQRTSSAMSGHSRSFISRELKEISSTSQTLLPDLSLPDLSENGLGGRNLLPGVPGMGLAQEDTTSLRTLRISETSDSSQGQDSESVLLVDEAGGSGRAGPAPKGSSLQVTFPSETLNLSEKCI
Chain of EP2 (P43116 whole entry): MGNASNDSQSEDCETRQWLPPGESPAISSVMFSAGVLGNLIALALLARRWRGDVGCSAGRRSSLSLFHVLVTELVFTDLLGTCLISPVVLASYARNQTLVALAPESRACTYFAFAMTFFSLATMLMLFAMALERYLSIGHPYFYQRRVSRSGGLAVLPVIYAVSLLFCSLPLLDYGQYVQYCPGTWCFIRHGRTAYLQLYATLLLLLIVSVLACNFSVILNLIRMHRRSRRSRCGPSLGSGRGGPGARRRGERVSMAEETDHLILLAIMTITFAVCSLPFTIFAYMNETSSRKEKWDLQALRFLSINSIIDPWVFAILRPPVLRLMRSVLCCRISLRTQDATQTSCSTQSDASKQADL
Chain of PTGER2 (EP2) (P43116 whole entry): as above

| Structure (SMILES) | IC50 [1] | IC50 [2] | IC50 [3] |
| --- | --- | --- | --- |
| CCOc1cc(-c2cc(NCCc3cc4c(cc3OC(F)F)OCO4)ncn2)ccc1OCC(=O)O [Ex 217] | 321 nM | 238 nM | 272 nM |
| CCOc1cc(-c2cc(NCCc3cc4c(cc3C)OCCO4)ncn2)ccc1C(=O)O [Ex 327] | 159 nM | 296 nM | 920 nM |
| CCOc1cc(-c2cc(NCCc3ccc4cc[nH]c4c3)ncn2)ccc1OC(C)C(=O)O (stereo not shown) [Ex 223] | 199 nM | 329 nM | 288 nM |
| O=C(O)c1ccc(-c2cc(NCCc3c(F)cc4ncccc4c3F)ncn2)cc1OC1CCC1 [Ex 228] | 194 nM | 392 nM | 300 nM |
| CCSc1cc(-c2cc(NCCc3cc4ccoc4cc3F)ncn2)ccc1C(=O)O [Ex 275] | 102 nM | 67 nM | 468 nM |
| NC(=O)c1ccc(-c2cc(NCCc3c(F)cc4ncccc4c3F)ncn2)s1 [Example 356, 5-{6-[2-(5,7-Difluoro-quinolin-6-yl)-ethylamino]-pyrimidin-4-yl}-thiophene-2-carboxylic acid amide] | 2340 nM | – | 828 nM |
| CCOc1cc(-c2cc(NCCc3ccc4ccccc4c3Cl)ncn2)ccc1C(=O)O [Ex 260] | 880 nM | – | 404 nM |
| CCOc1cc(-c2cc(NCCc3cc4ccccc4cc3OC(C)C)ncn2)ccc1CC(=O)O [Ex 258] | 3610 nM | – | 390 nM |
| CCOc1cc(-c2cc(NCCc3cc4cccnc4c(F)c3Cl)ncn2)ccc1OCC(=O)O [Ex 301] | 425 nM | – | 626 nM |
| CCOc1cc(-c2cc(NCCc3cc4c(cc3OC)N(C)C(=O)CC4)ncn2)sc1C(=O)O [Ex 210] | 794 nM | – | 252 nM |
| O=C(O)c1ccc(-c2cc(NCCc3cc(Cl)c4c(c3)OCCO4)ncn2)cc1OC1CCC1 [Ex 246] | 534 nM | – | 364 nM |
| CCOc1cc(-c2cc(NCCc3cc4ccccc4cc3Cl)ncn2)ccc1OCC(=O)O [Ex 247] | 797 nM | – | 365 nM |
| CCOc1cc(-c2cc(NCCc3c(F)cc4ccccc4c3F)ncn2)ccc1CC(=O)O [Ex 107] | 950 nM | – | 76 nM |
| CCOc1cc(-c2cc(NCCc3ccc4sccc4c3)ncn2)ccc1OC(C)(C)C(=O)O [Ex 321] | 562 nM | – | 772 nM |
| Cc1c(Cl)c(CCNc2cc(-c3ccc(C(=O)O)c(OC4CCC4)c3)ncn2)cc2cccnc12 [Ex 263] | 524 nM | – | 425 nM |
| O=C(O)c1ccc(-c2cc(NCCc3ccc4c(c3)OCCO4)ncn2)cc1OC1CCC1 [Ex 244] | 552 nM | – | 356 nM |
| COc1cc2ccccc2cc1CCNc1cc(-c2cc(OC)c(C(=O)O)c(OC)c2)ncn1 [Ex 300] | 312 nM | – | 624 nM |
| CCOc1cc(-c2cc(NCCc3ccc4c(c3)OCCC4)ncn2)ccc1C(=O)O [Ex 309, 4-[6-(2-Chroman-7-yl-ethylamino)-pyrimidin-4-yl]-2-ethoxy-benzoic acid] | > 27700 nM | – | 677 nM |
| Cc1c(CCNc2cc(-c3ccc(-c4nc(O)no4)cc3)ncn2)ccc2ccccc12 [Ex 302] | 384 nM | – | 520 nM |
| COc1cc2cc(F)oc2cc1CCNc1cc(-c2ccc(C(=O)O)c(OC3CCC3)c2)ncn1 [Ex 280] | 514 nM | – | 491 nM |
| Cc1c(CCNc2cc(-c3cc(OCCO)c(C(=O)O)s3)ncn2)ccc2ccccc12 [Ex 48] | 66 nM | – | 22 nM |
| CC(C)Oc1cc2ccccc2cc1CCNc1cc(-c2ccc(C(=O)O)c(OC3CCC3)c2)ncn1 [Ex 264] | 11800 nM | – | 425 nM |
| Cc1c(CCNc2cc(-c3ccc(C(=O)O)c(OC4CCC4)c3)ncn2)ccc2cccnc12 [Ex 235] | 772 nM | – | 325 nM |
| CCOc1cc(-c2cc(NCCc3cc4ccccc4cc3OC)ncn2)cc(OC)c1C(=O)O [Ex 282] | 296 nM | – | 498 nM |
| CCOc1cc(-c2cc(NCCc3ccc4cc[nH]c4c3)ncn2)ccc1C(=O)O [Ex 259, 2-Ethoxy-4-{6-[2-(1H-indol-6-yl)-ethylamino]-pyrimidin-4-yl}-benzoic acid] | 302 nM | – | 394 nM |

From patent US11839613B2, “Pyrimidine derivatives as PGE2 receptor modulators” (IDORSIA PHARMACEUTICALS LTD, priority 2017, dated 2023)
